Laboratory results reported in US20240016788A1, “PHARMACEUTICAL COMPOSITION FOR PREVENTING OR TREATING DIABETIC AND POSTMENOPAUSAL OSTEOPOROSIS, CONTAINING ADIPORON” (PnP Biopharm Co., Ltd., priority 2020, published 2024).

Legend:
Format in all cases: in vivo
[1] = test system: type 2 diabetic db/db mice; experiment: Histological examination (H&E, trichrome, Safranin O) of ilium (femur) and lumbar vertebra 5, db/db mice; conditions: adiporon 30 mg/kg/day, 4 weeks
Protocol: A leptin receptor-defective type 2 diabetic animal model (db/db mice) and a normal control group (db/m mice) were used, and the experiment was performed by dividing into 4 groups as follows: non-diabetic control group (dm cont, n=8), non-diabetic adiporon treatment group (dm+AdipoR, n=8), diabetic control group (db cont, n=8) and diabetic adiporon treatment group (db+AdipoR, n=8). The control group was fed a normal diet, and the adiporon treatment group was fed a diet comprising adiporon (30 mg/kg/day) for 4 weeks from 16 weeks of age. During the experiment, body weight was measured every week, fasting blood glucose was measured using an Accu-Chek meter (Roche Diagnostics, St. Louis, MO) every 2 weeks after blood was collected from the tail vein, and glycated hemoglobin (HbA1c) was measured every 4 weeks using a […] automatic analyzer (Bayer healthcare LLC, IN) after blood was collected from the tail vein. The temperature and humidity of the breeding room were maintained at 20˜25° C. and 50˜60%, respectively, and the lights were turned on and off at 12-hour intervals. After removing tissues of the femur and L5 lumbar vertebrae, some of them were fixed in 10% formalin for immunostaining and decalcified. Thereafter, after neutralization with 0.5M Phosphate buffer (pH 7.4), washing, and embedding in paraffin. Tissue sections were cut to a thickness of 5 μm, and hematoxylin and eosin staining (H&E staining), trichrome staining, and Safranin O staining were performed. In bone tissue, double immunofluorescence staining method was performed using anti-adiponectin receptor 1/2 antibody, anti-perilipin-1 antibody, anti-RANKL antibody, anti-TNF-α antibody, and ApopTag Fluorescein In Situ Apoptosis Detection Kit (Chemicon International, Temecula, CA) and expression was observed using a confocal microscope.

[2] = test system: ovariectomized C57BL/6 mice; experiment: Serum ACP5/TRAP, osteocalcin and urine deoxypyridinoline by ELISA, ovariectomized mice; conditions: for Increased concentration of deoxypyridinoline in urine: P<0.05
Protocol: 7 weeks after ovariectomization or sham surgery of 7-week-old C57BL/6 mice, normal feed group (adiporon non-administered group; control group) administration group, 2.5 mg/kg day or 25 mg/kg day, respectively Feed comprising adiporon was consumed for 6 weeks from 14 weeks of age. Body weight was measured every week during the experiment period, and the experiment was conducted after 6 weeks of administration. In both experiments, blood collected from each mouse was allowed to stand at room temperature for 30 minutes, and then centrifuged at 3000 rpm for 15 minutes to obtain serum. Blood levels of tartrate-resistant acid phosphatase (TRAP/ACP5) and osterocalcin concentration were measured by ELISA. In addition, 8-hydroxy-deoxyguanosine, a DNA damage marker caused by oxidative stress, and isoprostane, a marker of oxidative stress caused by lipid peroxidation caused by free fatty acids, and deoxypyridinoline (DPP), which indicates the function of osteoclasts, were measured in 24-hour urine concentrations by ELISA method.

[3] = test system: ovariectomized C57BL/6 mice; experiment: Growth plate staining (trichrome, Safranin O) of ilium, ovariectomized mice; conditions: 6 weeks
Protocol: 7 weeks after ovariectomization or sham surgery of 7-week-old C57BL/6 mice, normal feed group (adiporon non-administered group; control group) administration group, 2.5 mg/kg day or 25 mg/kg day, respectively Feed comprising adiporon was consumed for 6 weeks from 14 weeks of age. Body weight was measured every week during the experiment period, and the experiment was conducted after 6 weeks of administration. […] Thereafter, after neutralization with 0.5M Phosphate buffer (pH 7.4), washing, and embedding in paraffin. Tissue sections were cut to a thickness of 5 μm, and hematoxylin and eosin staining (H&E staining), trichrome staining, and Safranin O staining were performed. In bone tissue, double immunofluorescence staining method was performed using anti-adiponectin receptor 1/2 antibody, anti-perilipin-1 antibody, anti-RANKL antibody, anti-TNF-α antibody, and ApopTag Fluorescein In Situ Apoptosis Detection Kit (Chemicon International, Temecula, CA) and expression was observed using a confocal microscope.

[4] = adiporon 2.5 or 25 mg/kg day, dose not distinguished, ELISA

SMILES: Cl.O=C(COc1ccc(C(=O)c2ccccc2)cc1)NC1CCN(Cc2ccccc2)CC1 [adiporon]
- Decrease in the ilium growth plate (thickness) ([1]; ilium (femur)): recovered
- Increase in adipose tissue in tissue ([1]; ilium (femur)): recovered
- Increase in fibrosis in tissue ([1]; ilium (femur)): recovered
- Increase in adipose tissue in tissue ([1]; vertebrae (lumbar vertebrae 5)): reversed
- Increase in fibrosis in tissue ([1]; vertebrae (lumbar vertebrae 5)): reversed
- Increased concentration of deoxypyridinoline in urine ([2]; adiporon 2.5 mg/kg day vs not administered): significantly reduced
- Increased concentration of deoxypyridinoline in urine ([2]; adiporon 25 mg/kg day vs not administered): significantly reduced
- Decreased serum osteocalcin concentration [2, 4]: reversed
- Serum ACP5/TRAP concentrations [2, 4]: no such change
- Decreased thickness of the iliac growth plate ([3]; adiporon 2.5 mg/kg day): increased
- Decreased thickness of the iliac growth plate ([3]; adiporon 25 mg/kg day): increased
